Data from ChEMBL document CHEMBL4393695, “Thiazole orange - Spermine conjugate: A potent human telomerase inhibitor comparable to BRACO-19” (Eur J Med Chem, 2019).
The source made the active and inactive calls. The rule behind the calls is not given here.

Tests used:
[1] = biological target: Telomerase reverse transcriptase (Homo sapiens) (UniProt O14746); assay: Inhibition of telomerase activity in human HeLa cell lysate at 10 uM in presence of [32P]-labeled template primer by TRAP assay; type: subcellular
[2] = biological target: Telomerase reverse transcriptase (Homo sapiens) (UniProt O14746); assay: Inhibition of telomerase activity in human HeLa cell lysate at <=2.5 uM in presence of [32P]-labeled template primer by TRAP assay; type: subcellular
[3] = biological target: Telomerase reverse transcriptase (Homo sapiens) (UniProt O14746); assay: Inhibition of telomerase activity in human HeLa cell lysate at 0.039 to 10 uM in presence of [32P]-labeled template primer by TRAP assay; type: subcellular
HeLa [4] = assay: Inhibition of DNA polymerase activity in human HeLa cell lysate at 10 uM in presence of [32P]-labeled template primer by TRAP assay; type: subcellular
HeLa [5] = assay: Inhibition of DNA polymerase activity in human HeLa cell lysate at <=2.5 uM in presence of [32P]-labeled template primer by TRAP assay; type: subcellular
Quadruplex DNA [6] = assay: Binding affinity to G-quadruplex G1 DNA (unknown origin) assessed as melting temperature at compound to DNA ratio of 4:1 in presence of 150 mM Na+ by circular dichroism thermal denaturation analysis (reference value: 57.4 degC); type: nucleic-acid assay
Quadruplex DNA [7] = assay: Binding affinity to G-quadruplex G1 DNA (unknown origin) assessed as melting temperature at compound to DNA ratio of 4:1 in presence of 100 mM K+ by circular dichroism thermal denaturation analysis (Rvb= 52.6 degC); type: nucleic-acid assay
[8] = biological target: Telomerase reverse transcriptase (Homo sapiens) (UniProt O14746); assay: Inhibition of telomerase activity in human HeLa cell lysate at 6.25 uM in presence of [32P]-labeled template primer by TRAP assay; type: subcellular
Quadruplex DNA [9] = assay: Binding affinity to G-quadruplex G2 DNA (unknown origin) assessed as increase in deltaTm at compound to DNA ratio of 10:1 by fluorescence thermal denaturation analysis; type: nucleic-acid assay
HeLa [10] = assay: Inhibition of DNA polymerase activity in human HeLa cell lysate at 6.25 uM in presence of [32P]-labeled template primer by TRAP assay; type: subcellular
HeLa [11] = assay: Inhibition of DNA polymerase activity in human HeLa cell lysate at 50 uM in presence of [32P]-labeled template primer by TRAP assay; type: subcellular
[12] = biological target: Telomerase reverse transcriptase (Homo sapiens) (UniProt O14746); details: HeLa, Lysate, 50 uM
Description: Inhibition of telomerase activity in human HeLa cell lysate at 50 uM in presence of [32P]-labeled template primer by TRAP assay

[13] = Ratio of Kd for human G-quadruplex G1 DNA to Kd for 17 mer duplex D1 DNA (unknown origin) by flourimetric titration analysis
Quadruplex DNA [14] = assay: Binding affinity to human G-quadruplex G1 DNA assessed as equilibrium dissociation constant at 0.5 uM incubated for 30 mins under dark condition by fluorometric titration analysis; type: nucleic-acid assay
dsDNA = assay: Binding affinity to 17 mer duplex D1 DNA (unknown origin) assessed as equilibrium dissociation constant at 0.5 uM incubated for 30 mins under dark condition by fluorometric titration analysis; type: nucleic-acid assay
Quadruplex DNA [15] = assay: Binding affinity to human G-quadruplex G1 DNA assessed as increase in fluorescence at 0.5 uM incubated for 30 mins in dark by fluorescence titration analysis relative to control; type: nucleic-acid assay
[16] = biological target: Telomerase reverse transcriptase (Homo sapiens) (UniProt O14746); assay: Inhibition of telomerase activity in human HeLa cell lysate in presence of [32P]-labeled template primer by TRAP assay; type: subcellular
Quadruplex DNA [17] = assay: Binding affinity to G-quadruplex G2 DNA (unknown origin) assessed as change in melting temperature at compound to DNA ratio of 7:1 by fluorescence thermal denaturation analysis; type: nucleic-acid assay
HeLa [18] = assay: Inhibition of DNA polymerase activity in human HeLa cell lysate at 0.625 to 10 uM in presence of [32P]-labeled template primer by TRAP assay; type: subcellular
[19] = biological target: Telomerase reverse transcriptase (Homo sapiens) (UniProt O14746); assay: Inhibition of telomerase activity in human HeLa cell lysate at <10 uM in presence of [32P]-labeled template primer by TRAP assay; type: subcellular
[20] = biological target: Telomerase reverse transcriptase (Homo sapiens) (UniProt O14746); assay: Inhibition of telomerase activity in human HeLa cell lysate at 0.625 uM in presence of [32P]-labeled template primer by TRAP assay; type: subcellular
HeLa [21] = assay: Inhibition of DNA polymerase activity in human HeLa cell lysate at <10 uM in presence of [32P]-labeled template primer by TRAP assay; type: subcellular
HeLa [22] = assay: Inhibition of DNA polymerase activity in human HeLa cell lysate at 5 uM in presence of [32P]-labeled template primer by TRAP assay; type: subcellular
[23] = biological target: Telomerase reverse transcriptase (Homo sapiens) (UniProt O14746); assay: Inhibition of telomerase activity in human HeLa cell lysate at 0.078 uM in presence of [32P]-labeled template primer by TRAP assay; type: subcellular
Quadruplex DNA [24] = assay: Ratio of thiazole orange Kd to compound Kd for human G-quadruplex G1 DNA at 0.5 uM incubated for 30 mins in dark by fluorimetric titration analysis; type: nucleic-acid assay
HeLa [25] = assay: Inhibition of DNA polymerase activity in human HeLa cell lysate at 0.156 to 2.5 uM in presence of [32P]-labeled template primer by TRAP assay; type: subcellular
[26] = biological target: Telomerase reverse transcriptase (Homo sapiens) (UniProt O14746); assay: Inhibition of telomerase activity in human HeLa cell lysate at 0.156 to 2.5 uM in presence of [32P]-labeled template primer by TRAP assay; type: subcellular
[27] = biological target: Telomerase reverse transcriptase (Homo sapiens) (UniProt O14746); assay: Inhibition of telomerase activity in human HeLa cell lysate at 5 uM in presence of [32P]-labeled template primer by TRAP assay; type: subcellular
HeLa [28] = assay: Inhibition of DNA polymerase activity in human HeLa cell lysate at 6.25 uM in presence of [32P]-labeled template primer by TRAP assay relative to control; type: subcellular
[29] = biological target: Telomerase reverse transcriptase (Homo sapiens) (UniProt O14746); assay: Inhibition of telomerase activity in human HeLa cell lysate at 6.25 uM in presence of [32P]-labeled template primer by TRAP assay relative to control; type: subcellular
[30] = biological target: Telomerase reverse transcriptase (Homo sapiens) (UniProt O14746); details: HeLa, Lysate, 10 to 100 uM
Description: Inhibition of telomerase activity in human HeLa cell lysate at 10 to 100 uM in presence of [32P]-labeled template primer by TRAP assay

HeLa [31] = details: Homo sapiens, Lysate, 10 to 100 uM
Description: Inhibition of DNA polymerase activity in human HeLa cell lysate at 10 to 100 uM in presence of [32P]-labeled template primer by TRAP assay

Sequence of Telomerase reverse transcriptase (Homo sapiens) (O14746 whole entry): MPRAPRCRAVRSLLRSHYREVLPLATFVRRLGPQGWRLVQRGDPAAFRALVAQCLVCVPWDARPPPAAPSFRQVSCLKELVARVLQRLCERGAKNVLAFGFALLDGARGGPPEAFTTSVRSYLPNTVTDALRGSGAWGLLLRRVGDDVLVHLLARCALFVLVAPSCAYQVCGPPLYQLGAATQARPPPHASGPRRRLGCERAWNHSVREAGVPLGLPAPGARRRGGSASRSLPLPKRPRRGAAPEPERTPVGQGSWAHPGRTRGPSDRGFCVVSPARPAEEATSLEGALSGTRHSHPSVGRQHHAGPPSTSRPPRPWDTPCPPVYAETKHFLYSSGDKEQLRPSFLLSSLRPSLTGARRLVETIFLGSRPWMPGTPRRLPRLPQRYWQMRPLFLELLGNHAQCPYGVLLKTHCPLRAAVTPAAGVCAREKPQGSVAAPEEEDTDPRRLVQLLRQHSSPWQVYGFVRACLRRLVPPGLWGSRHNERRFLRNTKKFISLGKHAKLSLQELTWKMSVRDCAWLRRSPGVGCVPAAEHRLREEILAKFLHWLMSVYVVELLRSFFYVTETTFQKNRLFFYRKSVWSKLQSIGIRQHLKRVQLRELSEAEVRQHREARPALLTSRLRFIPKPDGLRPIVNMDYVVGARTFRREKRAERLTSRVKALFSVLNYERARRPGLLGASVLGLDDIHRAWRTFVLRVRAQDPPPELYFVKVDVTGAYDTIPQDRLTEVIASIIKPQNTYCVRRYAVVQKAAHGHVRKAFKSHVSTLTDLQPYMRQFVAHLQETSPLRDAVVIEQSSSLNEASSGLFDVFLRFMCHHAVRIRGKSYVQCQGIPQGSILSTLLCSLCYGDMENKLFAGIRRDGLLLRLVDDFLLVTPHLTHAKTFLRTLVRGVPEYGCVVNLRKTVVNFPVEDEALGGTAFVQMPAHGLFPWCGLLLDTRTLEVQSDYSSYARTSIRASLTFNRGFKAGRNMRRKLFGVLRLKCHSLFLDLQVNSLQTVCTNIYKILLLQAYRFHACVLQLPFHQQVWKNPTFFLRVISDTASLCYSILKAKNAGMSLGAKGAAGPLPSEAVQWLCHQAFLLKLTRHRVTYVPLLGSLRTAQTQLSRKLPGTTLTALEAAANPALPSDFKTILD

Tm (Quadruplex DNA [6]) [°C] | Tm (Quadruplex DNA [7]) [°C] | inhibition [8] | Activity (Quadruplex DNA [9]) | inhibition (HeLa [10]) | Ratio [13] | fold change (FC) (Quadruplex DNA [15]) | Structure (SMILES) | also measured
– | – | – | – | – | – | – | CN(C)c1ccc(Nc2c3ccc(NC(=O)CCN4CCCC4)cc3nc3cc(NC(=O)CCN4CCCC4)ccc23)cc1 | inhibition [1]: Active; inhibition [2]: Active; inhibition [3]: Active; inhibition (HeLa [4]): Active; inhibition (HeLa [5]): inactive
60 | 62.3 | Active | Active | inactive | – | – | C[n+]1c(/C=C2\C=CN(CC(=O)NCCCCCCN)c3ccccc32)sc2ccccc21 | –
– | – | – | – | – | – | – | C[n+]1ccc(-c2c3nc(c(-c4cc[n+](C)cc4)c4ccc([nH]4)c(-c4cc[n+](C)cc4)c4ccc([nH]4)c(-c4cc[n+](C)cc4)c4nc2C=C4)C=C3)cc1 | inhibition (HeLa [11]): Active; inhibition [12]: Active
62.5 | 69.4 | Active | – | inactive | 0.79 | 200 | C[n+]1c(/C=C2\C=CN(CC(=O)NCCN3CCCC3)c3ccccc32)sc2ccccc21 | KdH (Quadruplex DNA [14]): 0.3 µM; KdL (Quadruplex DNA [14]): 1.77 µM; Kd (dsDNA): 0.38 µM; EC [16]: 2.5 µM; ΔTm (Quadruplex DNA [17]): 7.1 °C; inhibition (HeLa [18]): inactive
– | – | – | – | – | – | – | C/C(=C\C(=O)Nc1ccccc1C(=O)O)c1ccc2ccccc2c1 | inhibition [12]: Active
57.5 | 59.2 | inactive | Active | inactive | – | – | C[n+]1c(/C=C2\C=CN(CC(=O)NCCN)c3ccccc32)sc2ccccc21 | –
58.5 | 62.4 | Active | Active | inactive | – | – | C[n+]1c(/C=C2\C=CN(CC(=O)NCCNCCNCCN)c3ccccc32)sc2ccccc21 | inhibition [19]: Active; inhibition [20]: inactive; inhibition [1]: Active; inhibition (HeLa [21]): inactive
60.5 | 59.7 | Active | Active | inactive | 2.7 | 200 | C[n+]1c(/C=C2\C=CN(CC(=O)NCCOCCN3CCCC3)c3ccccc32)sc2ccccc21 | Kd (Quadruplex DNA [14]): 1.65 µM; Kd (dsDNA): 0.61 µM
60 | 63.4 | Active | – | – | 2.18 | 340 | CN1/C(=C/c2cc[n+](C)c3ccccc23)Sc2ccccc21 | –
56 | 64 | Active | Active | inactive | 4.18 | 200 | C[n+]1c(/C=C2\C=CN(CC(=O)NCCN3CCCCC3)c3ccccc32)sc2ccccc21 | Kd (Quadruplex DNA [14]): 1.13 µM; Kd (dsDNA): 0.27 µM; EC [16]: 5 µM; inhibition (HeLa [18]): inactive
61.5 | 60.5 | Active | Active | inactive | 2.8 | 200 | C[n+]1c(/C=C2\C=CN(CC(=O)NCCCNCCCN)c3ccccc32)sc2ccccc21 | inhibition [19]: Active; inhibition [20]: Active; KdH (Quadruplex DNA [14]): 0.14 µM; KdL (Quadruplex DNA [14]): 0.95 µM; KdH (dsDNA): 0.05 µM; KdL (dsDNA): 0.92 µM; inhibition [1]: Active; inhibition (HeLa [21]): inactive; inhibition (HeLa [4]): Active
57 | 59.4 | inactive | Active | inactive | – | – | C[n+]1c(/C=C2\C=CN(CC(=O)NCCOCCOCCOCCN)c3ccccc32)sc2ccccc21 | –
60.5 | 64.9 | Active | Active | inactive | 3.57 | 200 | C[n+]1c(/C=C2\C=CN(CC(=O)NCCOCCN3CCCCC3)c3ccccc32)sc2ccccc21 | Kd (Quadruplex DNA [14]): 2.18 µM; Kd (dsDNA): 0.71 µM
– | – | – | – | – | – | – | CN1C=C/C(=C\c2sc3ccccc3[n+]2C)c2ccccc21 | Kd (Quadruplex DNA [14]): 0.87 µM; Kd (dsDNA): 0.4 µM
56 | 58.7 | inactive | Active | inactive | – | – | C[n+]1c(/C=C2\C=CN(CC(=O)NCCOCCN)c3ccccc32)sc2ccccc21 | –
57.1 | 54 | inactive | – | inactive | – | – | C[n+]1c(/C=C2\C=CN(CC(=O)O)c3ccccc32)sc2ccccc21 | –
56.5 | 60.2 | inactive | Active | inactive | – | – | C[n+]1c(/C=C2\C=CN(CC(=O)NCCCN)c3ccccc32)sc2ccccc21 | –
– | – | – | – | – | – | – | O=C1c2ccc3c4ccc5c6c(ccc(c7ccc(c2c37)C(=O)N1CCN1CCCCC1)c64)C(=O)N(CCN1CCCCC1)C5=O | inhibition [1]: inactive
65 | 71 | – | – | – | 2.33 | 200 | C[n+]1c(/C=C2\C=CN(CC(=O)NCCCNCCCCNCCCN)c3ccccc32)sc2ccccc21 | inhibition (HeLa [22]): Active; inhibition [23]: inactive; Ratio (Quadruplex DNA [24]): 12.4; KdH (Quadruplex DNA [14]): 0.07 µM; KdL (Quadruplex DNA [14]): 1.73 µM; inhibition (HeLa [25]): inactive; KdH (dsDNA): 0.03 µM; KdL (dsDNA): 0.65 µM; inhibition [26]: Active; inhibition [1]: 100%; inhibition [27]: 100%; inhibition (HeLa [28]): 100%; inhibition [29]: 100%; inhibition (HeLa [4]): 100%; ΔTm (Quadruplex DNA [17]): 6.9 °C
– | – | – | – | – | – | – | NCCCNCCCCNCCCN | inhibition [30]: inactive; inhibition (HeLa [31]): inactive
